{
  "source": "patent US20220204509A1",
  "about": "“PYRIMIDO FIVE-MEMBERED HETEROCYCLIC COMPOUND AND USE THEREOF AS MUTANT IDH2 INHIBITOR” (EPITAS BIOSCIENCES (SHANGHAI) CO., LTD., priority 2019, published 2022)",
  "key": {"IDH2/R140Q [1]": {"biological_target": "T1, IDH2/R140Q (Homo sapiens, UniProt P48735, R140Q)", "T1 sequence (P48735 40-452 R140Q)": "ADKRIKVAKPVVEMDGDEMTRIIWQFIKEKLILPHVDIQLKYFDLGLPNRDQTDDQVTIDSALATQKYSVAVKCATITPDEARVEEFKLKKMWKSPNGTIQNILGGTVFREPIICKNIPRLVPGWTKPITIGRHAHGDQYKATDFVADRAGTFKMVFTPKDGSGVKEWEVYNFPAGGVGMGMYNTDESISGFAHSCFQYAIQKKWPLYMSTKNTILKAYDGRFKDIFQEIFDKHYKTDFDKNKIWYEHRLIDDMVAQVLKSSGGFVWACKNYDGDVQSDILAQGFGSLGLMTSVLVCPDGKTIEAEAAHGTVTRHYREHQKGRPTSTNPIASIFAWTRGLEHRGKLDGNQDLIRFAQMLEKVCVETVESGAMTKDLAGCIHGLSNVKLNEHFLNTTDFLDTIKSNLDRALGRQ", "assay": "Determination of the inhibitory activity of the compounds on IDH2/R140Q (NADPH reduction, resazurin/lipoamide dehydrogenase detection)", "type": "biochemical", "design": "purchased Abcam ab198153", "details": "IDH2/R140Q inhibitory activity; pre-incubated at 25° C. for 16 hours; read-out: IC50", "method": "In this example, the inhibitory activity of a compound on IDH2/R140Q was determined by measuring the reduction of the cofactor NADPH. The compound was incubated with IDH2/R140Q and NADPH, and then the reaction was initiated by adding α-KG. After a certain time of reaction under linear conditions, lipoamide dehydrogenase and the corresponding substrate resazurin were added for detection. Lipoamide dehydrogenase terminated the IDH2/R140Q reaction bγ subtracting the available cofactor NADPH. It oxidized NADPH to NADP, and reduced resazurin to highly fluorescent resorufin. The production of resorufin was detected to quantify the amount of cofactor NADPH remaining after a specific reaction time.\nThen 25 μL of a stop mixed solution (lipoamide dehydrogenase 36 μg/mL, resazurin 30 μM) prepared with the above reaction buffer was added to convert resazurin to resorufin to measure the remaining NADPH. After 10 minutes of incubation at 25° C., the fluorescence value was measured by Tecan […] […] The enzyme activity was measured at 10 concentrations for each compound, and multiple background holes without enzyme and full enzyme activity holes without compound were set up in the reaction. The concentration of dimethyl sulfoxide in the system was less than or equal to 2%. […] The multi-well plate in this example was purchased from Thermo Fisher Scientific, NADPH, α-KG, lipoamide dehydrogenase, and resazurin were purchased from Shenggong Bioengineering Co., Ltd., and IDH2/R140Q was purchased from Abcam (ab198153)."}, "IDH2/R140Q [2]": {"biological_target": "T1, IDH2/R140Q", "assay": "Inhibition of mutant IDH2 activity at the cell level (extracellular 2-HG, U87MG overexpressing IDH2/R140Q)", "type": "cell-based", "details": "U87MG overexpressing IDH2/R140Q; 2-HG in medium after 24 hours of culturing with compound; read-out: IC50", "method": "2-hydroxyglutarate dehydrogenase (2HGDH) can reduce NAD+ to NADH in the presence of 2-HG. The latter can be quantitatively detected by diaphorase and its substrate Resazurin.\nThe glioma cells U87MG overexpressing IDH2/R140Q mutation were cultured in 1% sodium pyruvate high-sugar MEM, 10% FBS, and placed in a CO2 incubator (37° C., 5% CO2, 95% air) for cultivation.\nThe cells were digested with trypsin and seeded in a 96-well plate at a density of 1×10^4 with a medium of 200 μL and cultured in a 37° C. incubator overnight. The next day, the test compound was added to a final concentration of 0.1% for DMSO. […] The protein and other components in the medium that may interfere with the results were filtered, and the follow-up method was used to detect the content of 2-HG. 50 uL CellTiter-Glo (purchased from Promega) was added to the 96-well plate with the remaining 100 μL of medium to detect cell survival;\nExtracellular 2-HG detecting system:\n(1) 50 μL reaction system: reaction buffer (50 mM Tris pH7.5, 100 mM NaCl, 20 mM MgCl2, 0.05% BSA), in which the final concentration of NAD+ was 40 μM, the final concentration of 2HGDH was 20 nM, and the test sample was added to 5 μL of medium; the reaction solution was mixed and centrifuged, and the reaction was carried out for 1 hour at 25° C. in the dark;\nPreparation of 2-HG standard curve: a 2-HG stock solution was diluted to 20 μM with reaction buffer, and a 2-fold gradient diluting was performed for a total of 6 points. Afterwards, the above-mentioned 2-HG was measured according to the extracellular 2-HG detecting system, and a standard curve was calculated and drawn.\nCalculation of extracellular 2-HG content:\nThe fluorescence value obtained in the extracellular 2-HG detecting system was calculated using the 2-HG standard curve to calculate the content of 2-HG in the medium, and DMSO was used as a negative control to calculate the compound's inhibition against IDH2/R140Q mutation producing 2-HG activity."}, "IDH2/WT": {"biological_target": "T2, IDH2/WT (Homo sapiens, UniProt P48735)", "T2 construct": "made in house; host or cells: E. coli", "T2 sequence (P48735 40-452)": "T1 sequence (P48735 40-452 R140Q) with Q101R", "assay": "Determination of the selectivity of compounds to wild-type IDH2 (IDH2/WT)", "type": "biochemical", "details": "Inhibitory activity on IDH2/WT; pre-incubated at 25° C. for 16 hours", "method": "The compound was incubated with IDH2/WT and NADP, and then the reaction was initiated by adding isocitrate. After a certain time of reaction under linear conditions, lipoamide dehydrogenase and resazurin were added to detect the amount of fluorescent substances. In this experiment, NADP was reduced to NADPH. The latter reduced resazurin to highly fluorescent resorufin under the action of lipoamide dehydrogenase. The production of resorufin was detected to quantify the amount of cofactor NADPH generated after a specific reaction time, so as to calculate the compound's inhibitory effect on IDH2/WT.\nSpecifically, in a 96-well plate, in a total reaction volume of 50 μL, a mixture of 0.6 nM IDH2/WT, serially diluted inhibitors, and 50 μM NADP in a reaction buffer containing Tris-HCl 20 mM (pH 7.5), 150 mM NaCl, 10 mM MgCl2, 10% Glycerol, 0.03% BSA, and 2.5 mM β-mercaptoethanol, was pre-incubated at 25° C. for 16 hours. Isocitrate was added to 50 μM and the reaction was carried out at 25° C. for 30 minutes. Then 25 μL of a mixed solution (lipoamide dehydrogenase 36 μg/mL, resazurin 30 μM) prepared with the above reaction buffer was added to convert resazurin to resorufin to measure the NADPH produced. After 10 minutes of incubation at 25° C., the fluorescence value was measured by Tecan INFINITE F FLEX under Ex544/Em590. The enzyme activity was measured at 10 concentrations for each compound, and multiple background holes without enzyme and full enzyme activity holes without compound were set up in the reaction. The concentration of dimethyl sulfoxide in the system was less than or equal to 2%. The value of IC50 was obtained by the formula: Y=100/(1+10^((Log IC50−X)*HillSlope)) using XLFit5 software (IDBS Software). In the method, the multi-well plate was purchased from Thermo Fisher Scientific, NADP, α-KG, lipoamide dehydrogenase, and resazurin were purchased from Shenggong Bioengineering Co., Ltd., and IDH2/WT was obtained by purification after E. coli overexpression."}},
  "note": "Changes are numbered by the printed parent chain.",
  "data": [
    {"smiles": "Cc1cc2c(NC3CCCC3)nc(-c3ccccc3)nc2[nH]1", "note": "[Compound 36, N-cyclopentyl-6-methyl-2-phenyl-7H-pyrrolo[2,3-d]pyrimidin-4-amine]", "values": [
      {"measurement": "IC50", "setting": "IDH2/R140Q [1]", "value": "< 100", "unit": "nM"},
      {"measurement": "IC50", "setting": "IDH2/R140Q [2]", "value": "100 to 1000", "unit": "nM"},
      {"measurement": "IC50", "setting": "IDH2/WT", "value": "> 5000", "unit": "nM"}
    ]}
  ]
}
